Assay results as given in ChEMBL document CHEMBL4028827, “Discovery of indazole aldosterone synthase (CYP11B2) inhibitors as potential treatments for hypertension” (Bioorg Med Chem Lett, 2017).

Experiments:
[1] = target: T1, Cytochrome P450 11B2, mitochondrial (Homo sapiens, UniProt P19099); assay: Inhibition of human CYP11B2-CLE9 expressed in Chinese hamster V79 cells using 11-deoxycorticosterone as substrate preincubated for 1 hr followed by substrate addition measured for 3 hrs by HTRF assay; type: cell-based
T1 sequence (P19099 whole entry): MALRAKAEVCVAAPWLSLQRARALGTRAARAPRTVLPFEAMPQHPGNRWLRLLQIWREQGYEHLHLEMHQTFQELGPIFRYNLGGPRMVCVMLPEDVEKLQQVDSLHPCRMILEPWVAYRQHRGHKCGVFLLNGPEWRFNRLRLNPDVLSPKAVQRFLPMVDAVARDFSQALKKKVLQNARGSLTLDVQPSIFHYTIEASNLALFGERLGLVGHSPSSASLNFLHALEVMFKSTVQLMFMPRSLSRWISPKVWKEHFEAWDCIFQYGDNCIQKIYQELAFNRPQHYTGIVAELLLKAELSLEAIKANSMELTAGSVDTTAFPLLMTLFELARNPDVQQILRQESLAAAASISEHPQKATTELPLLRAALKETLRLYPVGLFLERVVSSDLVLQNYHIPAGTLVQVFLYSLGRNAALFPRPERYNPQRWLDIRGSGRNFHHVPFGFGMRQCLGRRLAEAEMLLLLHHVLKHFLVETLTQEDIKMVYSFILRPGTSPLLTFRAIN

[2] = target: T2, Cytochrome P450 11B1, mitochondrial (Homo sapiens, UniProt P15538); assay: Inhibition of human CYP11B1-8C7 expressed in Chinese hamster V79 cells using 11-deoxycortisol as substrate preincubated for 1 hr followed by substrate addition measured for 3 hrs by HTRF assay; type: ADME, cell-based
T2 sequence (P15538 whole entry): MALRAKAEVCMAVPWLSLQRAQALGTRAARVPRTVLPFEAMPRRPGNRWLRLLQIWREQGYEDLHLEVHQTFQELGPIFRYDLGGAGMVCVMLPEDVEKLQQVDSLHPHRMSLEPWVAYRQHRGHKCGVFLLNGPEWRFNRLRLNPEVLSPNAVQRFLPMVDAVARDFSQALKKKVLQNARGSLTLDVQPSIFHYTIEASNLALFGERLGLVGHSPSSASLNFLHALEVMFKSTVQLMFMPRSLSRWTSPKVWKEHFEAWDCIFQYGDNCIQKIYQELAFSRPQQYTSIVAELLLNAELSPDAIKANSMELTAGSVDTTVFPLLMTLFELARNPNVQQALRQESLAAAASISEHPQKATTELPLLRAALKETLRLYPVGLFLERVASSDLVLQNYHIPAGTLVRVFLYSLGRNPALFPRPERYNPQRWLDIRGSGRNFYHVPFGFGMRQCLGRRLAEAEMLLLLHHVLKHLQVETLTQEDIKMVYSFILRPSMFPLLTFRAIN

[3] = Selectivity ratio of IC50 for human CYP11B1-8C7 expressed in Chinese hamster V79 cells to IC50 for human CYP11B2-CLE9 expressed in Chinese hamster V79 cells
[4] = Intrinsic clearance in rat liver microsomes at […] preincubated for 10 mins followed by NADPH addition measured after 45 mins by LC-MS analysis; type: ADME, microsome; conditions: read-out: CLH
[5] = target: T3, Cytochrome P450 11B2, mitochondrial (Rattus norvegicus, UniProt P30099); assay: Inhibition of rat CYP11B2-1F4 expressed in Chinese hamster V79 cells using 11-deoxycorticosterone as substrate preincubated for 1 hr followed by substrate addition measured for 3 hrs by HTRF assay; type: cell-based
T3 sequence (P30099 whole entry): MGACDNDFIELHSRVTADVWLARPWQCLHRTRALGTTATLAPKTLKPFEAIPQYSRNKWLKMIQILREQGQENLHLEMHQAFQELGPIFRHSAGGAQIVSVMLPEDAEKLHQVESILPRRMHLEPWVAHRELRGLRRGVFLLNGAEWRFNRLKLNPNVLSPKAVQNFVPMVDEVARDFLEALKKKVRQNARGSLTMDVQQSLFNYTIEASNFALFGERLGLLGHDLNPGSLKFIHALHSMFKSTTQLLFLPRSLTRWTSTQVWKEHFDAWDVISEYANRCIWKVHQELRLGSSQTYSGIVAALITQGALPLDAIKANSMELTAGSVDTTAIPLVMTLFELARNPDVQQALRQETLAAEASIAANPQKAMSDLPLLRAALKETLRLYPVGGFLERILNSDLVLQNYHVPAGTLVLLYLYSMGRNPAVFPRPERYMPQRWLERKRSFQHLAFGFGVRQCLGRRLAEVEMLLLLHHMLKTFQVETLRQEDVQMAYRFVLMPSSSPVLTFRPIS

[6] = target: T4, Steroid 17-alpha-hydroxylase/17,20 lyase (Homo sapiens, UniProt P05093); assay: Inhibition of human CYP17 expressed in African green monkey COS7 cells using 17-hydroxypregnenolone as substrate preincubated for 1 hr followed by substrate addition measured after 3 hrs by EIA; type: cell-based
T4 sequence (P05093 whole entry): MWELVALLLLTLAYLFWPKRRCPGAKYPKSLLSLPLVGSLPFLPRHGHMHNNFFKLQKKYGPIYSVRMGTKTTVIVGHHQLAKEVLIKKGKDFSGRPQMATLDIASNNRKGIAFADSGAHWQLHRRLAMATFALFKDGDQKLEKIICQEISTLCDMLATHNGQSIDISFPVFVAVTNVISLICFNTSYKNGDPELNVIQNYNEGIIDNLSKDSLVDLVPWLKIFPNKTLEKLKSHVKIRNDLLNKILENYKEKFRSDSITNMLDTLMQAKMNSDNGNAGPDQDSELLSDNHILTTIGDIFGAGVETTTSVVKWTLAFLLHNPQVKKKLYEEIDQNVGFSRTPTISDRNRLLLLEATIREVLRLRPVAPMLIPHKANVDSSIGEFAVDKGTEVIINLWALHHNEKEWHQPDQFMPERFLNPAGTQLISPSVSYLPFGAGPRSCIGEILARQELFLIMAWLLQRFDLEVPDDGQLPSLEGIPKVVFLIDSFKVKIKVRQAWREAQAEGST

Aromatase = target: T5, Aromatase (Homo sapiens, UniProt P11511); assay: Inhibition of CYP19 (unknown origin) using MFC as substrate and NADPH as cofactor preincubated for 10 mins with cofactor followed by substrate/enzyme addition measured after 30 mins
T5 sequence (P11511 whole entry): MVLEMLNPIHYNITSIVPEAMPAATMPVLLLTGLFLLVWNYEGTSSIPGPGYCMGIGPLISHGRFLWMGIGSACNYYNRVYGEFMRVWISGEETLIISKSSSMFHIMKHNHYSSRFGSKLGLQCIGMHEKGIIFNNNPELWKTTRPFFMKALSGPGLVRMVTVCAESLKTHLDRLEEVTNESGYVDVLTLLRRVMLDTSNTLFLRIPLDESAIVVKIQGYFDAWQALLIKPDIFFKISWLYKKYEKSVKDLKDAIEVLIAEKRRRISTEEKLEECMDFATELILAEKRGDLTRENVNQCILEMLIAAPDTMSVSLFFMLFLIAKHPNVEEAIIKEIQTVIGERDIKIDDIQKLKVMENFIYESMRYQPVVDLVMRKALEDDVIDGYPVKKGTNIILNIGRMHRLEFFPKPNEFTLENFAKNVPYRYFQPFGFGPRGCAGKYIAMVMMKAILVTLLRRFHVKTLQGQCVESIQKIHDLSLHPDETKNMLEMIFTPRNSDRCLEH

Steroid 21-hydroxylase = target: T6, Steroid 21-hydroxylase (Homo sapiens, UniProt P08686); assay: Inhibition of human CYP21 expressed in African green monkey COS7 cells using […] as substrate preincubated for 1 hr followed by substrate addition measured for 3 hrs by HTRF assay; type: cell-based
T6 sequence (P08686 whole entry): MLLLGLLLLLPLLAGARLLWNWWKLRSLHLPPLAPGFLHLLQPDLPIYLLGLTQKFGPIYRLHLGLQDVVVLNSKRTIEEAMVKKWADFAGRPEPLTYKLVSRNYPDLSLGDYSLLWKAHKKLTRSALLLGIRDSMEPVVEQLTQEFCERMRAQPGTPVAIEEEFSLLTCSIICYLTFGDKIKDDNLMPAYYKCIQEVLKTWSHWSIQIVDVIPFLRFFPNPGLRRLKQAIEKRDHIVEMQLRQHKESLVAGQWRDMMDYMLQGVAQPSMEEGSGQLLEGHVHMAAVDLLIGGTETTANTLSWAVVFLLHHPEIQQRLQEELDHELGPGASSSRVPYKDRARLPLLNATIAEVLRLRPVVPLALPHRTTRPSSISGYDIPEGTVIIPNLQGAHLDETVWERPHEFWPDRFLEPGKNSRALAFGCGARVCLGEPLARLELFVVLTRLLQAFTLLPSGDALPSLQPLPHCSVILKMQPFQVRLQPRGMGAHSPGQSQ

Cytochrome P450 3A4 = Cytochrome P450 3A4 (Homo sapiens, UniProt P08684); assay: Inhibition of hepatic CYP3A4 (unknown origin); type: ADME
Cytochrome P450 2C9 = Cytochrome P450 2C9 (Homo sapiens, UniProt P11712); assay: Inhibition of hepatic CYP2C9 (unknown origin); type: ADME
Cytochrome P450 2D6 = Cytochrome P450 2D6 (Homo sapiens, UniProt P10635); assay: Inhibition of hepatic CYP2D6 (unknown origin); type: ADME
Cytochrome P450 2D6, sequence (P10635 whole entry): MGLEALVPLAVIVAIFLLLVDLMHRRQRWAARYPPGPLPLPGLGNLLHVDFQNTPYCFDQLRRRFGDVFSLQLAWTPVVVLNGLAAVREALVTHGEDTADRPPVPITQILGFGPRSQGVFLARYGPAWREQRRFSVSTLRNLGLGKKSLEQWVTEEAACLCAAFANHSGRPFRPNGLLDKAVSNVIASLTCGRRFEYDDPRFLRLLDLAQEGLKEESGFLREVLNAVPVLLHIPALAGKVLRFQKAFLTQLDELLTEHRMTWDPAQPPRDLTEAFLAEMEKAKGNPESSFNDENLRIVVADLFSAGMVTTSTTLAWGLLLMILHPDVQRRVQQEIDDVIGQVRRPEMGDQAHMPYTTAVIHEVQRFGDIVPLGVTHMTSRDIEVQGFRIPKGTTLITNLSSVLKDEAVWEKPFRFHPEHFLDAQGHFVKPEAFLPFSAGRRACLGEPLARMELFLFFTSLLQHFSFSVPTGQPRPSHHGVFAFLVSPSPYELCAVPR

Cytochrome P450 3A4, sequence (P08684 whole entry): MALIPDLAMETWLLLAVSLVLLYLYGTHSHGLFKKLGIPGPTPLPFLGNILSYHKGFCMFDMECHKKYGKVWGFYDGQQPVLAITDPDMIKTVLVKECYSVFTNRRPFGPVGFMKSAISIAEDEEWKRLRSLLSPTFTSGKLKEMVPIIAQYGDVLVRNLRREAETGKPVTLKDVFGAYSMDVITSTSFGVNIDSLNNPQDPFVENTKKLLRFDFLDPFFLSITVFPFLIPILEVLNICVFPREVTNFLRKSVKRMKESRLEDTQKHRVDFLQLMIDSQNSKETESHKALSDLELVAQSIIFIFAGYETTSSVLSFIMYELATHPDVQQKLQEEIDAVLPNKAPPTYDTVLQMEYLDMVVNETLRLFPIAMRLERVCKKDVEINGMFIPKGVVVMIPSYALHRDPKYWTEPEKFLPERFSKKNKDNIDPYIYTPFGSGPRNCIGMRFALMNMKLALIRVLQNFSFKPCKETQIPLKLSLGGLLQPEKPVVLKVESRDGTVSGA
Cytochrome P450 2C9, sequence (P11712 whole entry): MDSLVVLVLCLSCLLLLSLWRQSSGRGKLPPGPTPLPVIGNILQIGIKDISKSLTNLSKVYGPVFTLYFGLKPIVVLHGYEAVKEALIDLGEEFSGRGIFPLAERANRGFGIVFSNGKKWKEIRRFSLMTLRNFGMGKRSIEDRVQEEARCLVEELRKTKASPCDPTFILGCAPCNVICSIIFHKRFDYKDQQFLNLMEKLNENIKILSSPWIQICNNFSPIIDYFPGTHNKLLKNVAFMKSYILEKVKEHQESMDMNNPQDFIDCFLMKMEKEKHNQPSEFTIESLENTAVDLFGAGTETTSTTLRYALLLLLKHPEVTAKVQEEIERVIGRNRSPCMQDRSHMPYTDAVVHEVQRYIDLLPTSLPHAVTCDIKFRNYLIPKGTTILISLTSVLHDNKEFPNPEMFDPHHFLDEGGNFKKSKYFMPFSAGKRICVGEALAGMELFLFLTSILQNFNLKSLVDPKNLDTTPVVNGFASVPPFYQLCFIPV

| Structure (SMILES) | IC50 [1] [µM] | IC50 [2] [µM] | Ratio IC50 [3] | CLint scaled [4] [mL/min/kg] | further results |
| --- | --- | --- | --- | --- | --- |
| Cc1cccc2c1cnn2-c1cncc(C(C)(C)O)c1 | 0.00777 to 0.008 | 0.21 | 27 |  |  |
| CC(C)(O)c1cncc(-n2ncc3ccc(Cl)cc32)c1 | 0.528 to 0.53 | 8.3 to 8.33 | >16 |  |  |
| COc1cncc(-n2ncc3cc(F)ccc32)c1 | 0.044 to 0.0441 | 1.3 | 30 |  |  |
| Fc1ccc2c(cnn2-c2cccnc2)c1 | 0.217 to 0.22 | 8.3 to 8.33 | >38 | 43 |  |
| CC(C)(O)c1cncc(-n2ncc3c(F)ccc(F)c32)c1 | 0.0003 to 0.0008 | 0.0018 to 0.0089 | 6 - 11 | < 20 |  |
| COc1nn(-c2cncc(C(C)(C)O)c2)c2ccccc12 | 0.025 | 1.4 to 1.41 | 57 |  |  |
| CC(C)(O)c1cncc(-n2nc(C(F)(F)F)c3ccccc32)c1 | 0.3 to 0.304 | 8.3 to 8.33 | >27 |  |  |
| CC(C)(O)c1cncc(-n2ncc3cc(C(F)(F)F)ccc32)c1 | 0.507 to 0.51 | 1.2 to 1.24 | 2 | < 20 |  |
| CC(C)(O)c1cncc(-n2ncc3cccc(F)c32)c1 | 0.0009 | 0.0107 to 0.011 | 12 | < 20 |  |
| CC(C)(O)c1cncc(-n2ncc3cc(Cl)ccc32)c1 | 0.027 to 0.0273 | 0.47 | 17 |  |  |
| CC(C)(O)c1cncc(-n2ncc3ccc(C(F)(F)F)cc32)c1 | 2.3 | 8.3 to 8.33 | >4 |  |  |
| Fc1ccc2c(cnn2-c2cncc(C(F)(F)F)c2)c1 | 0.088 to 0.0883 | 1.69 to 1.7 | 19 | 300 |  |
| Cc1nn(-c2cncc([C@@](C)(O)C(F)(F)F)c2)c2ccccc12 | 0.0329 to 0.033 | 0.386 to 0.39 | 12 |  | IC50 [5]: 0.033 µM; IC50 [6]: > 10 µM; IC50 (Aromatase): 6.2 µM; IC50 (Steroid 21-hydroxylase): > 10 µM; IC50 (Cytochrome P450 3A4): > 50 µM; IC50 (Cytochrome P450 2C9): 3.8 µM; IC50 (Cytochrome P450 2D6): > 50 µM |
| CC(C)(O)c1cncc(-n2ncc3c(F)cccc32)c1 | 0.00758 to 0.008 | 0.149 to 0.15 | 19 | 64 |  |
| Cc1nn(-c2cncc(C(C)(C)O)c2)c2ccccc12 | 0.0335 to 0.034 | 0.779 to 0.78 | 44 |  |  |
| CC(C)(O)c1cncc(-n2ncc3ccccc32)c1 | 0.015 to 0.0151 | 0.535 to 0.54 | 36 | < 20 |  |
| CC(C)(O)c1cncc(-n2ncc3ccc(F)cc32)c1 | 0.0785 to 0.079 | 1.99 to 2 | 25 | 83 |  |
| Fc1cncc(-n2ncc3cc(F)ccc32)c1 | 0.456 to 0.46 | 8.3 to 8.33 | >18 | 85 |  |
| COC(=O)c1cccc2c1cnn2-c1cncc(C(C)(C)O)c1 | 0.022 to 0.0221 |  |  |  |  |
| CC(C)(O)c1cncc(-n2ncc3cc(F)ccc32)c1 | 0.0109 to 0.013 | 0.197 to 0.21 | 15 - 19 | 30 |  |
| COC(=O)c1cncc(-n2ncc3cc(F)ccc32)c1 | 0.031 | 0.52 | 17 |  |  |
| CC(C)(O)c1cncc(-n2ncc3c(Cl)ccc(F)c32)c1 | 0.0002 to 0.0004 | 0.0011 to 0.00772 | 5 - 20 |  |  |
| Cc1nn(-c2cncc([C@](C)(O)C(F)(F)F)c2)c2ccccc12 | 0.014 to 0.0143 | 0.338 to 0.34 | 24 |  | IC50 [5]: 0.014 µM; IC50 [6]: > 10 µM; IC50 (Aromatase): 6.3 µM; IC50 (Steroid 21-hydroxylase): > 10 µM; IC50 (Cytochrome P450 3A4): > 50 µM; IC50 (Cytochrome P450 2C9): 11 µM; IC50 (Cytochrome P450 2D6): > 50 µM |
| CC(C)(O)c1cncc(-n2nc(C3CC3)c3ccccc32)c1 | 0.76 to 0.763 | 8.3 to 8.33 | >11 |  |  |
| CC(C)(O)c1cncc(-n2ncc3cc(C#N)ccc32)c1 | 1.16 | 8.3 to 8.33 | >7 |  |  |
| COc1ccc2c(cnn2-c2cncc(C(C)(C)O)c2)c1 | 0.0849 to 0.085 | 1 | 12 |  |  |
| Cc1ccc2c(cnn2-c2cncc(C(C)(C)O)c2)c1 | 0.0979 to 0.098 | 0.916 to 0.92 | 9 |  |  |
| CC(O)(c1cncc(-n2ncc3cc(F)ccc32)c1)C(F)(F)F (configuration not stated) | 0.002 to 0.00213 | 0.047 to 0.0474 | 24 | 230 |  |
